# Reference: US20250295646A1, “METHODS OF USE OF T-TYPE CALCIUM CHANNEL MODULATORS” (Praxis Precision Medicines, Inc., priority 2022, published 2025)
# What was measured:
# [1] = target: T1, hCav3.2 (Homo sapiens, UniProt O95180); assay: PatchXpress patch clamp, voltage dependent block (half-inactivated state); format: cell-based
# T1 construct: expressed in transfected cells; host or cells: HEK-293
# Protocol: The voltage dependence of calcium channel isoforms was determined by comparing the activity of resting (Tonic Block) and half-inactivated (Voltage Dependent Block) voltages across various concentrations of Formula (II). First, HEK-293 cells containing hCav3.1, hCav3.2, or hCav3.3 calcium channel isoforms were prepared by seeding at 2×10^6 cells per flask in culture for 2 days; the cells were then harvested at about 6×10^6 cells. Harvested cells were washed once in DPBS for approximately 30 minutes, and 1 mL of 1× (0.05%) Trypsin-EDTA was added, swirled, and allowed to sit on the cells for approximately 4 minutes. […]
# Pharmacology was measured during Epoch 1. Percent inhibition was calculated as: 100*((([Step 2+Step 5]/2)−Step3)/(Step 2+Step 5/2)), wherein Step 2 is the peak current measured at baseline, Step 5 is the current measured during the wash period, and Step 3 is the peak current measured during application of the compound. […]
# The effect of the compound on peak current amplitude was monitored using the voltage protocol described above and washed out after reaching steady state as determined by PatchXpress stability scripts. […] Washout current for the calculation of inhibition was determined by resetting the holding potential to the previously determined half-inactivation potential (V0.5) and measuring peak current from this holding potential. […]
# [2] = test system: adult patients with essential tremor; assay: Essential tremor trial Example 16 Part B randomized withdrawal phase: TETRAS, mADL, ADL efficacy; format: in vivo, human; set-up: TETRAS mADL Mean CFB (SD): unit not given here; conditions: for TETRAS ADL LS Mean CFB / TETRAS CULS LS Mean CFB / TETRAS PS Item 6: Archimedes Spiral (Left) LS Mean CFB / TETRAS PS Item 6: Archimedes Spiral (Right) LS Mean CFB / TETRAS PS Item 7: Handwriting LS Mean CFB / TETRAS PSTS LS Mean CFB / TETRAS ULS LS Mean CFB / TETRAS mADL LS Mean CFB: change from randomization baseline; for TETRAS ADL Mean CFB (SD) / TETRAS CULS CTA (%) / TETRAS PS Item 6: Archimedes Spiral (Left) CTA (%) / TETRAS PS Item 6: Archimedes Spiral (Right) CTA (%) / TETRAS PS Item 7: Handwriting CTA (%) / TETRAS PSTS CTA (%) / TETRAS ULS CTA (%) / TETRAS mADL Mean CFB (SD): from randomization baseline
# Protocol: A two part trial (Part A and Part B as described below) was conducted to study the efficacy, safety, tolerability, and pharmacokinetics of the compound of formula (I) in adult patients with essential tremor (ET).
# Participants were males and females ages 18 and older with a clinical diagnosis of ET. Participants who have a history of any other medical, neurological, or psychiatric condition that may explain or cause tremor were excluded. Participants who have previously received treatment with formula (I) in any clinical trial (including Part A of the current trial for participants enrolling in Part B) were also excluded.
# In Part B, an open label titration phase and a randomized, double-blind, placebo-controlled trial was conducted.
# [3] = Formula (I) group, Day 70 follow-up
# [4] = Part B - RWD, RWAS, Formula (I) group, Day 56
# [5] = Part B - RWD, RWAS, Formula (I) group, Day 70
# [6] = Part B - RWD, RWAS, Formula (I) group, Randomization Baseline (Day 42 post-dose value)
# [7] = Part B RWD, Formula (I) group, Day 56
# T1 sequence (O95180 whole entry): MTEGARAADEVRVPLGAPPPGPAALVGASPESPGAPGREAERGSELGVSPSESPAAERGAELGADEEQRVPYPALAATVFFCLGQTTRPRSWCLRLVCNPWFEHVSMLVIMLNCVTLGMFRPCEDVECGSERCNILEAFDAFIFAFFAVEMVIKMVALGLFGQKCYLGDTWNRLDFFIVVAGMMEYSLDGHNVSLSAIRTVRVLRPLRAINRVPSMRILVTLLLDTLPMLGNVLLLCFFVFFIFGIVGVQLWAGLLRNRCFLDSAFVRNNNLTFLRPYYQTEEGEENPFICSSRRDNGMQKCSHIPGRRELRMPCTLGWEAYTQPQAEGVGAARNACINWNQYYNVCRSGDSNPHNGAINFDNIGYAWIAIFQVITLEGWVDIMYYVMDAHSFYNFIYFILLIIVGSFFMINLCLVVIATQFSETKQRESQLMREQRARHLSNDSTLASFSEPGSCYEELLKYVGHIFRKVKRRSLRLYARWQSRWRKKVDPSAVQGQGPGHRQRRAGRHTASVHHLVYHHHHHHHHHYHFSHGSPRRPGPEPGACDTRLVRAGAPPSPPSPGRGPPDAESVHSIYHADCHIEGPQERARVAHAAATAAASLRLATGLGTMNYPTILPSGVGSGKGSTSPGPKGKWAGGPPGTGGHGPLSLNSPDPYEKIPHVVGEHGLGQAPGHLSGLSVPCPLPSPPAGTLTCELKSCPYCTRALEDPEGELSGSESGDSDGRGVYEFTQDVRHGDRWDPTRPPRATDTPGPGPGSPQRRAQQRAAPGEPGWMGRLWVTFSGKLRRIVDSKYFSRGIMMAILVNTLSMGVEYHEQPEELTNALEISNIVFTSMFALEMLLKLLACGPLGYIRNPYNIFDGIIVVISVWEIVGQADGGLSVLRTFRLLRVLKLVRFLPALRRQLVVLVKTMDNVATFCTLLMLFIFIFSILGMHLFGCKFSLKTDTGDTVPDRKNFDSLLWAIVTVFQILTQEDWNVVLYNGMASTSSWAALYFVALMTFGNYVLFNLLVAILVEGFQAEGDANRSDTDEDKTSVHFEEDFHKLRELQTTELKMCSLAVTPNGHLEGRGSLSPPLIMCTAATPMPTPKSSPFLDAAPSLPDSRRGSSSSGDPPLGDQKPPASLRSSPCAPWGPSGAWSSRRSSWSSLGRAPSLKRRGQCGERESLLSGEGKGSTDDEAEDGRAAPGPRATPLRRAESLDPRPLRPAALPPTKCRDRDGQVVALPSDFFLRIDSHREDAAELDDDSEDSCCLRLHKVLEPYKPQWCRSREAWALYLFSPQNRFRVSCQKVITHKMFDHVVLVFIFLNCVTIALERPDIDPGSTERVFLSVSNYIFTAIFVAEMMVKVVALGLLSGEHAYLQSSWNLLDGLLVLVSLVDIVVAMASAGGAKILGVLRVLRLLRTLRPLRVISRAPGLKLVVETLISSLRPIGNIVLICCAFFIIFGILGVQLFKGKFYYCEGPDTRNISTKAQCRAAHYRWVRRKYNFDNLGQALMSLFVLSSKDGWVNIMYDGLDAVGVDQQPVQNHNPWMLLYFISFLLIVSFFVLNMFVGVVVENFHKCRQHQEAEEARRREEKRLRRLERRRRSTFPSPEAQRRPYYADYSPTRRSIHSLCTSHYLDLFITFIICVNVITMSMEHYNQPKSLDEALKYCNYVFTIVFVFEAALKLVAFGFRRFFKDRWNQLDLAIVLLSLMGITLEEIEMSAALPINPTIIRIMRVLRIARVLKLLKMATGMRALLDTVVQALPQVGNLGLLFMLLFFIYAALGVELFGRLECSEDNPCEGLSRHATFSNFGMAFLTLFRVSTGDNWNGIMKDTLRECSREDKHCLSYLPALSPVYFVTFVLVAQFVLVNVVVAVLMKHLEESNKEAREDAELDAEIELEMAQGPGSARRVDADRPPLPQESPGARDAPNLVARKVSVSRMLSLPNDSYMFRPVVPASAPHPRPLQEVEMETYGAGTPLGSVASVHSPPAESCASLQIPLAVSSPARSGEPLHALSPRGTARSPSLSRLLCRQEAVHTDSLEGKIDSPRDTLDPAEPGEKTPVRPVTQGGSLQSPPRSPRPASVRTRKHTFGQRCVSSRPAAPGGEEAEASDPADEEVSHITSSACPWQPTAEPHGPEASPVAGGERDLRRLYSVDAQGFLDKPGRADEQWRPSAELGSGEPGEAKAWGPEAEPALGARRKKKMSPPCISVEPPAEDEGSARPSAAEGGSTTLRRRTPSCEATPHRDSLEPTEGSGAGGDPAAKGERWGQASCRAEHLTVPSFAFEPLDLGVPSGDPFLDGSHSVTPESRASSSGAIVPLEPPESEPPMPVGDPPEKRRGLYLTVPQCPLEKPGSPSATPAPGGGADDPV
smiles,measurement,setting,value
"CC(C)(C)NC(=O)CN1CCC(CNC(=O)c2cc(F)cc(Cl)c2)CC1.Cl [compound of formula (II), N-((1-(2-(tert-butylamino)-2-oxoethyl)piperidin-4-yl)methyl)-3-chloro-5-fluorobenzamide hydrochloride]",tonic block/voltage dependent block (TB/VDB) ratio,[1],2.0
"CC(C)(C)NC(=O)CN1CCC(CNC(=O)c2cc(F)cc(Cl)c2)CC1 [compound of formula (I), N-((1-(2-(tert-butylamino)-2-oxoethyl)piperidin-4-yl)methyl)-3-chloro-5-fluorobenzamide]","TETRAS ADL score, LS mean change from randomization baseline (Day 42)",[2]; [3],3.267
same,"TETRAS combined upper limb score, LS mean change from randomization baseline (Day 42)",[2]; [3],3.156
same,increase in combined upper limb tremor amplitude,[2]; [3],28.1%
same,increase in upper limb tremor amplitude,[2]; [3],27.2%
same,"mADL score, LS mean change from randomization baseline (Day 42)",[2]; [3],4.353
same,"TETRAS upper limb score, LS mean change from randomization baseline (Day 42)","[2]; Formula (I) group, Day 70 follow-up (2 weeks after cessation)",1.653
same,TETRAS ADL LS Mean Difference: Formula (I) - Placebo (95% CI),"[2]; Part B - RWD, RWAS, Day 56","−9.578 (−18.9020, −0.2546)"
same,TETRAS CULS LS Mean Difference: Formula (I) - Placebo (95% CI),"[2]; Part B - RWD, RWAS, Day 56","−1.896 (−8.7365, 4.9451)"
same,TETRAS PSTS LS Mean Difference: Formula (I) - Placebo (95% CI),"[2]; Part B - RWD, RWAS, Day 56","−3.025 (−11.2090, 5.1595)"
same,TETRAS ULS LS Mean Difference: Formula (I) - Placebo (95% CI),"[2]; Part B - RWD, RWAS, Day 56","−0.253 (−4.9188, 4.4129)"
same,TETRAS mADL LS Mean Difference: Formula (I) - Placebo (95% CI),"[2]; Part B - RWD, RWAS, Day 56","−8.439 (−15.3856, −1.4916)"
same,TETRAS ADL LS Mean Difference: Formula (I) - Placebo (95% CI),"[2]; Part B - RWD, RWAS, Day 70","−5.988 (−16.8132, 4.8377)"
same,TETRAS CULS LS Mean Difference: Formula (I) - Placebo (95% CI),"[2]; Part B - RWD, RWAS, Day 70","−0.964 (−6.5938, 4.6660)"
same,TETRAS PSTS LS Mean Difference: Formula (I) - Placebo (95% CI),"[2]; Part B - RWD, RWAS, Day 70","−1.277 (−7.5286, 4.9741)"
same,TETRAS ULS LS Mean Difference: Formula (I) - Placebo (95% CI),"[2]; Part B - RWD, RWAS, Day 70","−0.316 (−3.3765, 2.7441)"
same,TETRAS mADL LS Mean Difference: Formula (I) - Placebo (95% CI),"[2]; Part B - RWD, RWAS, Day 70","−3.236 (−12.3264, 5.8538)"
same,TETRAS ADL LS Mean CFB,[2]; [4],0.877
same,TETRAS CULS LS Mean CFB,[2]; [4],1.525
same,TETRAS PS Item 6: Archimedes Spiral (Left) LS Mean CFB,[2]; [4],0.394
same,TETRAS PS Item 6: Archimedes Spiral (Right) LS Mean CFB,[2]; [4],0.087
same,TETRAS PS Item 7: Handwriting LS Mean CFB,[2]; [4],0.037
same,TETRAS PSTS LS Mean CFB,[2]; [4],1.174
same,TETRAS ULS LS Mean CFB,[2]; [4],0.716
same,TETRAS mADL LS Mean CFB,[2]; [4],1.350
same,TETRAS ADL Mean CFB (SD),[2]; [4],5.84 (16.276)
same,TETRAS CULS CTA (%),[2]; [4],14.7%
same,TETRAS PS Item 6: Archimedes Spiral (Left) CTA (%),[2]; [4],36.5%
same,TETRAS PS Item 6: Archimedes Spiral (Right) CTA (%),[2]; [4],9.5%
same,TETRAS PS Item 7: Handwriting CTA (%),[2]; [4],4.2%
same,TETRAS PSTS CTA (%),[2]; [4],8.1%
same,TETRAS ULS CTA (%),[2]; [4],12.8%
same,TETRAS mADL Mean CFB (SD),[2]; [4],8.45 (34.208)
same,TETRAS ADL LS Mean CFB,[2]; [5],3.267
same,TETRAS CULS LS Mean CFB,[2]; [5],3.156
same,TETRAS PS Item 6: Archimedes Spiral (Left) LS Mean CFB,[2]; [5],0.384
same,TETRAS PS Item 6: Archimedes Spiral (Right) LS Mean CFB,[2]; [5],0.353
same,TETRAS PS Item 7: Handwriting LS Mean CFB,[2]; [5],0.189
same,TETRAS PSTS LS Mean CFB,[2]; [5],3.422
same,TETRAS ULS LS Mean CFB,[2]; [5],1.653
same,TETRAS mADL LS Mean CFB,[2]; [5],4.353
same,TETRAS ADL Mean CFB (SD),[2]; [5],18.73 (24.838)
same,TETRAS CULS CTA (%),[2]; [5],28.1%
same,TETRAS PS Item 6: Archimedes Spiral (Left) CTA (%),[2]; [5],35.8%
same,TETRAS PS Item 6: Archimedes Spiral (Right) CTA (%),[2]; [5],33.4%
same,TETRAS PS Item 7: Handwriting CTA (%),[2]; [5],19.6%
same,TETRAS PSTS CTA (%),[2]; [5],21.8%
same,TETRAS ULS CTA (%),[2]; [5],27.2%
same,TETRAS mADL Mean CFB (SD),[2]; [5],87.71 (126.281)
same,"TETRAS ADL, Mean",[2]; [6],22.17
same,"TETRAS CULS, Mean",[2]; [6],19.33
same,"TETRAS PS Item 6: Archimedes Spiral (Left), Mean",[2]; [6],1.75
same,"TETRAS PS Item 6: Archimedes Spiral (Right), Mean",[2]; [6],1.75
same,"TETRAS PS Item 7: Handwriting, Mean",[2]; [6],1.75
same,"TETRAS PSTS, Mean",[2]; [6],22.83
same,"TETRAS ULS, Mean",[2]; [6],10.25
same,"TETRAS mADL (TETRAS modified total score), Mean",[2]; [6],12.17
same,"TETRAS ADL score, LS mean difference (Formula (I)—Placebo)","[2]; Part B RWD, Day 56",−9.578
same,"TETRAS combined upper limb score, LS mean difference (Formula (I)—Placebo)","[2]; Part B RWD, Day 56",−1.896
same,"TETRAS upper limb score, LS mean difference (Formula (I)—Placebo)","[2]; Part B RWD, Day 56",−0.253
same,"mADL total score, LS mean difference (Formula (I)—Placebo)","[2]; Part B RWD, Day 56",−8.439
same,"TETRAS ADL score, LS mean change from randomization baseline (Day 42)",[2]; [7],0.877
same,"TETRAS combined upper limb score, LS mean change from randomization baseline (Day 42)",[2]; [7],1.525
same,"TETRAS upper limb score, LS mean change from randomization baseline (Day 42)",[2]; [7],0.716
same,increase in combined upper limb tremor amplitude,[2]; [7],14.7%
same,increase in upper limb tremor amplitude,[2]; [7],12.8%
same,"mADL total score, LS mean change from randomization baseline (Day 42)",[2]; [7],1.350
